Columns and labels:
[1] = tested on: perceived human salt intensity; assay: inventors' test of perceived human salt intensity; type: in vivo
From the text: Unlike other mammals, amiloride has been reported to only slightly reduce the intensity of sodium chloride taste, i.e., by about 15-20% when used at concentrations that specifically modulate ENaC function (Halpern, B. P. (1998) Neuroscience and Behavioral Reviews. 23: 5-47). […] Thus, additional non-ENaC genes are likely involved in human salt taste.

sodium chloride taste = details: concentrations that specifically modulate ENaC function; cited from earlier work

Row | SMILES | effect on perceived human salt intensity ([1]; tested at 300-fold above IC50 for alpha beta gamma ENaC (10-fold over IC50 for delta beta gamma ENaC)) | reduction of the intensity of sodium chloride taste (sodium chloride taste) | effect on perceived human salt intensity ([1]; tested at 3000-fold above IC50 for alpha beta gamma ENaC (100-fold over IC50 for delta beta gamma ENaC), levels printed for benzamil)
1 | N=C(N)NC(=O)c1nc(Cl)c(N)nc1N [amiloride] | did not elicit a significant effect | 15-20% | 
2 | NC(=Nc1ccccc1)NC(=O)c1nc(Cl)c(N)nc1N [phenamil] |  |  | did not elicit a significant effect

From patent US20080261824A1, “Rationale, methods, and assays for identifying novel taste cell genes and salty taste receptor targets and assays using these identified genes or gene products” (Senomyx, Inc., priority 2006, published 2008)
